From patent US20250263370A1 (Tay Therapeutics Limited, priority 2022, published 2025)
Several values for one entry are separate records, joined by “and”; a condition that tells them apart may be missing. Equal entries are not always repeated. Entries after “also recorded” stand apart in the source; their conditions may differ. Where two headings read alike, the source gives them in different places. Marks after values point to notes of the source that are not given here.

Columns and labels:
[1] = tested on: collagen-induced arthritis; assay: Histopathologic analysis of H&E-stained hind limbs of CIA rats; assay type: in vivo, Lewis rat
Text: Hind limbs were collected following euthanasia, with the left limb being used for H&E staining.
H&E-stained slides of designated tissues from animals were transferred to an independent pathologist for microscopic evaluation (SPFBio). Samples were assigned the histologic grades based on the severity of change from tissue where CIA was not induced. Histology grades assigned were as follows: grade 1 (minimal change), grade 2 (mild change), grade 3 (moderate change), grade 4 (marked change), and grade 5 (severe change).
Moderate inflammation was also associated with increased edema fluid, fibrin, and cellular debris. Marked mixed cell inflammation was characterized by dense, widespread accumulations of neutrophils and macrophages with lesser number of lymphocytes within one or more joint spaces, synovium and periarticular soft tissues. Marked inflammation was also associated with abundant edema fluid, fibrin, and cellular debris.
Marked granulation tissue (pannus) was associated with inflammation and was characterized by widespread fibrovascular connective tissue that expanded/replaced the periarticular soft tissues of one or more joints, extended into/expanded joint spaces, was contiguous with areas of erosion/ulcer in articular cartilage and/or increased eroded surface of bone, and variably extended along the diaphysis.
Instances of minimal increased eroded surface were not associated with fragments of bone contiguous and/or surrounded by granulation tissue. […] In some areas, increased eroded surfaces were contiguous with areas of erosion/ulcer in the articular cartilages. Instance of marked increased eroded surface were often associated with fragments of bone contiguous with and/or surrounded by granulation tissue.
This observation was typically most pronounced at joint margins (transition zone). The ulceration was often associated with inflammation and granulation tissue extending through the defect to the subchondral bone.
Marked increased periosteal bone (periosteal bone formation) was characterized by extensive areas of increased bone matrix and numerous prominent osteoblasts lining trabecular surfaces along the metaphysis and/or diaphysis of one or more bones. In some areas, increased periosteal bone was contiguous with increased eroded surface and/or erosion/ulcer at articular cartilage.

IL-17A = IL-17A levels by ELISA in stimulated human peripheral blood mononuclear cells; assay type: cell-based; settings: for IC50: Homo sapiens, PBMC
Method: (§1) CD2, CD3, and CD28 antibody-coated beads from the T-cell activation/expansion kit (Miltenyi Biotec) were added to the PBMC at a bead-to-cell ratio of 1:2.
(§2) The mixture of PBMCs and beads were seeded into the wells of the round-bottom 96-well plate at a concentration of 2×10^5 cells/well in a total volume of 200 μL. The cells were cultured for 72 hours at 37° C. and 5% CO2 and then supernatants were collected and IL-17A and IL-22 levels were measured by ELISA. […] The final compound concentration ranged from 30,000 nM to 0.005 nM and the final DMSO concentration per well was 0.3%. PBMCs were seeded at approximately 2×10^5 cells/well in the wells of the 96-well tissue culture plate in a total volume of 190 μL. The plate was incubated for 1 hour at 37° C. and 5% CO2. […] The cells were then cultured for 24 hours at 37° C. and 5% CO2. The supernatant was collected and CXCL10 levels were measured by ELISA.

[2] = tested on: rat anti-collagen IgG1 antibodies; assay: Rat anti-collagen IgG1 antibodies in serum of CIA rats at day 21; assay type: in vivo, Lewis rat; settings: for Average rat anti-collagen IgG1 levels, Mean: day 21, group mean; for Final Rat Anti-Collagen IgG1 Antibody Con. / Rat Anti-Collagen IgG1 Antibody Con.: day 21, per animal; for Rat Anti-Collagen IgG1 Antibody Con.: before multiplying by Fold 1000; for levels of rat anti-collagen IgG1 antibodies relative to CIA induced, no treatment: day 21
Method: Blood was additionally collected from groups 1-7 via cardiac puncture following euthanasia on Day 21. […] Serum was divided into two separate tubes and stored at −75±15° C. One tube was used to analyze IgG1, and the other tube was reserved for additional analyses.

IL-22 = IL-22 levels by ELISA in stimulated human peripheral blood mononuclear cells; assay type: cell-based; settings: for IC50: Homo sapiens, PBMC
Method: as §1, §2

[3] = 30 mg/kg, hind limbs, CIA induced, 8 animals examined
[4] = CIA rats, 3 mg/kg (group 5), hind limb H&E
[5] = CIA rats, 10 mg/kg (group 6), hind limb H&E
[6] = CIA rats, 30 mg/kg (group 7), hind limb H&E

## CNC(=O)c1[nH]c(C(=O)NC2CCC2)cc1O[C@@H](C)c1ccccc1 (stereo in doubt) [Example 101, N^5-cyclobutyl-N^2-methyl-3-(1-phenylethoxy)-1H-pyrrole-2,5-dicarboxamide]
[1]; [3]
  Number of animals: Increased bone, periosteum, Marked: 0
  Number of animals: Increased bone, periosteum, Mild: 2
  Number of animals: Increased bone, periosteum, Minimal: 1
  Number of animals: Increased bone, periosteum, Moderate: 0
  Number of animals: Increased eroded surface, bone, Marked: 0
  Number of animals: Increased eroded surface, bone, Mild: 4
  Number of animals: Increased eroded surface, bone, Minimal: 0
  Number of animals: Increased eroded surface, bone, Moderate: 0
  Number of animals: Mixed cell inflammation, Marked: 0
  Number of animals: Mixed cell inflammation, Mild: 3
  Number of animals: Mixed cell inflammation, Minimal: 0
  Number of animals: Mixed cell inflammation, Moderate: 4
  Number of animals: No Visible Lesions: 1
[1]; CIA rats, 3 mg/kg (group 5)
  samples with pathologic observations: All samples
[1]; [4]
  erosion/ulcer in articular cartilage: mild to moderate
  granulation tissue (pannus): mild and mild to moderate
  increased eroded surface of bone (bone resorption): mild to moderate
  increased periosteal bone (periosteal bone formation): mild to moderate
  mixed cell inflammation: moderate to marked
[1]; CIA rats, 10 mg/kg (group 6)
  samples with pathologic observations: All samples
[1]; [5]
  erosion/ulcer in articular cartilage: mild and moderate
  granulation tissue (pannus): mild and moderate
  increased eroded surface of bone (bone resorption): mild and moderate
  increased periosteal bone (periosteal bone formation): minimal; also recorded: moderate
  mixed cell inflammation: moderate
[1]; CIA rats, 30 mg/kg (group 7)
  samples with no recorded pathological observations: One out of eight
[1]; [6]
  erosion in the articular cartilages: mild
  granulation tissue (pannus): mild and moderate
  increased eroded surface of bone (bone resorption): mild
  increased periosteal bone (periosteal bone formation): mild
  mixed cell inflammation: mild and moderate
[1]; CIA rats, 3, 10 and 30 mg/kg (Groups 5-7)
  pathologic observations after microscopic evaluation, overall: at lower levels relative to samples from animals in the CIA-induced group (Group 2) in a dose-dependent manner
IL-17A; Test Subject 1, read-out: IL-17A IC50
  IC50: 20.5 nM
IL-17A; Test Subject 2, read-out: IL-17A IC50
  IC50: 5.7 nM
IL-17A; Test Subject 3, read-out: IL-17A IC50
  IC50: 58.5 nM
IL-17A; mean of test subjects, read-out: IL-17A IC50 Mean
  IC50: 28.2 nM
IL-17A; human PBMC
  effectiveness in reducing inflammatory biomarkers IL-17A, IL-22, and CXCL-10 relative to GSK620: more effective than GSK620
IL-17A; human PBMC, 72 hours
  IC50 for IL-17A relative to GSK620: substantially lower IC50
IL-17A; human PBMC, from mean IC50
  Biomarker selectivity (IL-17 vs. CXCL10): >1063 Fold
[2]; Group 5 (CIA), 3 mg/kg
  Average rat anti-collagen IgG1 levels, Mean: 7247.32*
  Final Rat Anti-Collagen IgG1 Antibody Con.: 7202.91 units/ml and 5737.56 units/ml and 596.39 units/ml and 17040.09 units/ml and 6834.32 units/ml and 2359.32 units/ml and 1570.97 units/ml and 16636.97 units/ml
  Rat Anti-Collagen IgG1 Antibody Con.: 7.20 units/ml and 5.74 units/ml and 0.60 units/ml and 17.04 units/ml and 6.83 units/ml and 2.36 units/ml and 1.57 units/ml and 16.64 units/ml
[2]; Group 6 (CIA), 10 mg/kg
  Average rat anti-collagen IgG1 levels, Mean: 10839.90
  Final Rat Anti-Collagen IgG1 Antibody Con.: 44339.86 units/ml and 9577.48 units/ml and 15070.08 units/ml and 545.06 units/ml and 12072.29 units/ml and 3772.28 units/ml and 782.47 units/ml and 559.69 units/ml
  Rat Anti-Collagen IgG1 Antibody Con.: 44.34 units/ml and 9.58 units/ml and 15.07 units/ml and 0.55 units/ml and 12.07 units/ml and 3.77 units/ml and 0.78 units/ml and 0.56 units/ml
[2]; Group 7 (CIA), 30 mg/kg
  Average rat anti-collagen IgG1 levels, Mean: 1447.13**
  Final Rat Anti-Collagen IgG1 Antibody Con.: 219.33 units/ml and 81.22 units/ml and 1208.05 units/ml and 4311.36 units/ml and 1799.62 units/ml and 548.72 units/ml and 1961.63 units/ml
  Rat Anti-Collagen IgG1 Antibody Con.: 0.22 units/ml and 0.08 units/ml and 1.21 units/ml and 4.31 units/ml and 1.80 units/ml and 0.55 units/ml and 1.96 units/ml
[2]; 1 mg/kg, 10 mg/kg as printed, p<0.05
  levels of rat anti-collagen IgG1 antibodies relative to CIA induced, no treatment: significantly decreased levels
[2]; 30 mg/kg, p<0.01
  levels of rat anti-collagen IgG1 antibodies relative to CIA induced, no treatment: significantly decreased levels
IL-22; Test Subject 1, read-out: IL-22 IC50
  IC50: 14.8 nM
IL-22; Test Subject 2, read-out: IL-22 IC50
  IC50: 26.9 nM
IL-22; Test Subject 3, read-out: IL-22 IC50
  IC50: 21.1 nM
IL-22; mean of test subjects, read-out: IL-22 IC50 Mean
  IC50: 20.9 nM
IL-22; human PBMC, 72 hours
  IC50 for IL-22 relative to GSK620: substantially lower IC50
IL-22; human PBMC, from mean IC50
  Biomarker selectivity (IL-22 vs. CXCL10): >1433 Fold
